From US4336375A, “Cephalosporanic acid derivatives” (American Cyanamid Company, priority 1980, dated 1982)
In brackets after ≈: the same amount, converted by molar mass. Where two headings read alike, the source gives them in different places.

Key:
Format in all cases: cell-based
[1] = test system: Pseudomonas aeruginosa G236; assay: In vitro MIC, agar dilution, Pseudomonas aeruginosa G236; details: Pseudomonas aeruginosa G236; agar dilution, 35° C., 18 hours, nutrient agar; read-out: Minimal Inhibitory Concentration
Description: (§1) The in vitro activity of representative compounds of the present invention are given in the following Table I in terms of minimal inhibitory concentration. The test used was the standard agar dilution test using a Steers multiple inocula replicator and incubating at 35° C. for 18 hours in conventional nutrient agar.

[2] = test system: Pseudomonas aeruginosa PD05141; assay: In vitro MIC, agar dilution, Pseudomonas aeruginosa PD05141; details: Pseudomonas aeruginosa PD05141; agar dilution, 35° C., 18 hours, nutrient agar; read-out: Minimal Inhibitory Concentration
Description: as §1

[3] = test system: Pseudomonas aeruginosa 12-4-4; assay: In vitro MIC, agar dilution, Pseudomonas aeruginosa 12-4-4; details: 1244; Pseudomonas aeruginosa 12-4-4; agar dilution, 35° C., 18 hours, nutrient agar; read-out: Minimal Inhibitory Concentration
Description: as §1

[4] = test system: Pseudomonas aeruginosa UCS 76-13; assay: In vitro MIC, agar dilution, Pseudomonas aeruginosa UCS 76-13; details: UCS7613; Pseudomonas aeruginosa UCS 76-13; agar dilution, 35° C., 18 hours, nutrient agar; read-out: Minimal Inhibitory Concentration
Description: as §1

[5] = test system: Klebsiella pneumoniae MA75-1; assay: In vitro MIC, agar dilution, Klebsiella pneumoniae MA75-1; details: MA751; Klebsiella pneumoniae MA75-1; agar dilution, 35° C., 18 hours, nutrient agar; read-out: Minimal Inhibitory Concentration
Description: as §1

[6] = test system: Klebsiella pneumoniae W75-2; assay: In vitro MIC, agar dilution, Klebsiella pneumoniae W75-2; details: W752; Klebsiella pneumoniae W75-2; agar dilution, 35° C., 18 hours, nutrient agar; read-out: Minimal Inhibitory Concentration
Description: as §1

[7] = test system: Klebsiella pneumoniae W75-4; assay: In vitro MIC, agar dilution, Klebsiella pneumoniae W75-4; details: W754; Klebsiella pneumoniae W75-4; agar dilution, 35° C., 18 hours, nutrient agar; read-out: Minimal Inhibitory Concentration
Description: as §1

[8] = test system: Klebsiella pneumoniae UR76-1; assay: In vitro MIC, agar dilution, Klebsiella pneumoniae UR76-1; details: UR761; Klebsiella pneumoniae UR76-1; agar dilution, 35° C., 18 hours, nutrient agar; read-out: Minimal Inhibitory Concentration
Description: as §1

[9] = test system: Klebsiella pneumoniae AD; assay: In vitro MIC, agar dilution, Klebsiella pneumoniae AD; details: Klebsiella pneumoniae AD; agar dilution, 35° C., 18 hours, nutrient agar; read-out: Minimal Inhibitory Concentration
Description: as §1

[10] = test system: Enterobacter aerogenes UR76-3; assay: In vitro MIC, agar dilution, Enterobacter aerogenes UR76-3; details: Klebsiella aerogenes, UR763; Enterobacter aerogenes UR76-3; agar dilution, 35° C., 18 hours, nutrient agar; read-out: Minimal Inhibitory Concentration
Description: as §1

[11] = test system: Enterobacter cloacae MA75-1; assay: In vitro MIC, agar dilution, Enterobacter cloacae MA75-1; details: MA751; Enterobacter cloacae MA75-1; agar dilution, 35° C., 18 hours, nutrient agar; read-out: Minimal Inhibitory Concentration
Description: as §1

[12] = test system: Enterobacter cloacae OSU75-2; assay: In vitro MIC, agar dilution, Enterobacter cloacae OSU75-2; details: OSU752; Enterobacter cloacae OSU75-2; agar dilution, 35° C., 18 hours, nutrient agar; read-out: Minimal Inhibitory Concentration
Description: as §1

[13] = test system: Serratia K101; assay: In vitro MIC, agar dilution, Serratia K101; details: Serratia K101; agar dilution, 35° C., 18 hours, nutrient agar; read-out: Minimal Inhibitory Concentration
Description: as §1

[14] = test system: Serratia marcens K77-1; assay: In vitro MIC, agar dilution, Serratia marcens K77-1; details: K771; Serratia marcens K77-1; agar dilution, 35° C., 18 hours, nutrient agar; read-out: Minimal Inhibitory Concentration
Description: as §1

[15] = test system: Serratia marcens QHC77-2; assay: In vitro MIC, agar dilution, Serratia marcens QHC77-2; details: QHC772; Serratia marcens QHC77-2; agar dilution, 35° C., 18 hours, nutrient agar; read-out: Minimal Inhibitory Concentration
Description: as §1

[16] = test system: Proteus vulgaris N74-1; assay: In vitro MIC, agar dilution, Proteus vulgaris N74-1; details: N741, 35° C., 18 hours, nutrient agar, read-out: Minimal Inhibitory Concentration
Description: as §1

[17] = test system: Proteus morganii K72; assay: In vitro MIC, agar dilution, Proteus morganii K72; details: Morganella morganii; Proteus morganii K72; agar dilution, 35° C., 18 hours, nutrient agar; read-out: Minimal Inhibitory Concentration
Description: as §1

[18] = test system: Proteus rettgeri N76-1; assay: In vitro MIC, agar dilution, Proteus rettgeri N76-1; details: Providencia rettgeri, N761; Proteus rettgeri N76-1; agar dilution, 35° C., 18 hours, nutrient agar; read-out: Minimal Inhibitory Concentration
Description: as §1

[19] = test system: Escherichia coli ESS22-31; assay: In vitro MIC, agar dilution, Escherichia coli ESS22-31; details: read-out: Minimal Inhibitory Concentration
Description: as §1

[20] = test system: Escherichia coli W75-1; assay: In vitro MIC, agar dilution, Escherichia coli W75-1; details: W751, 35° C., 18 hours, nutrient agar, read-out: Minimal Inhibitory Concentration
Description: as §1

[21] = test system: Escherichia coli OSU75-1; assay: In vitro MIC, agar dilution, Escherichia coli OSU75-1; details: OSU751, 35° C., 18 hours, nutrient agar, read-out: Minimal Inhibitory Concentration
Description: as §1

[22] = test system: Escherichia coli 311; assay: In vitro MIC, agar dilution, Escherichia coli 311; details: 35° C., 18 hours, nutrient agar, read-out: Minimal Inhibitory Concentration
Description: as §1

[23] = test system: Staphylococcus aureus Q74-1; assay: In vitro MIC, agar dilution, Staphylococcus aureus Q74-1; details: Q741; Staphylococcus aureus Q74-1; agar dilution, 35° C., 18 hours, nutrient agar; read-out: Minimal Inhibitory Concentration
Description: as §1

[24] = test system: Staphylococcus aureus Q74-6; assay: In vitro MIC, agar dilution, Staphylococcus aureus Q74-6; details: Q746; Staphylococcus aureus Q74-6; agar dilution, 35° C., 18 hours, nutrient agar; read-out: Minimal Inhibitory Concentration
Description: as §1

[25] = test system: Enterococcus SM77-15; assay: In vitro MIC, agar dilution, Enterococcus SM77-15; details: SM7715; Enterococcus SM77-15; agar dilution, 35° C., 18 hours, nutrient agar; read-out: Minimal Inhibitory Concentration
Description: as §1

[26] = Escherichia coli, ESS2231, 18 h

| SMILES | MIC [1] [µg/mL] | MIC [2] [µg/mL] | MIC [3] [µg/mL] | MIC [4] [µg/mL] | MIC [5] [µg/mL] | MIC [6] [µg/mL] | MIC [7] [µg/mL] | MIC [8] [µg/mL] | MIC [9] [µg/mL] | MIC [10] [µg/mL] | MIC [11] [µg/mL] | MIC [12] [µg/mL] | MIC [13] [µg/mL] | MIC [14] [µg/mL] | MIC [15] [µg/mL] | MIC [16] [µg/mL] | MIC [17] [µg/mL] | MIC [18] [µg/mL] | MIC [20] [µg/mL] | MIC [21] [µg/mL] | also measured |
| --- | --- | --- | --- | --- | --- | --- | --- | --- | --- | --- | --- | --- | --- | --- | --- | --- | --- | --- | --- | --- | --- |
| CCN1CCN(C(=O)NC(C(=O)NC2C(=O)N3C(C(=O)O)=C(CSc4nnc(-n5nc(C)cc5C)n4N)CS[C@H]23)c2ccc(O)cc2)C(=O)C1=O (stereo partly drawn) [Compound VIII, 7-[2-(4-Ethyl-2,3-dioxo-1-piperazinecarboxamido)-2-(p-hydroxyphenyl)acetamido]-3-[4-amino-5-(3,5-dimethyl-1-pyrazolyl)-1,2,4-triazol-3-ylthiomethyl]-3-cephem-4-carboxylic acid] | 128 (≈ 173 µM) | > 128 | 32 (≈ 43.3 µM) | > 128 | 2 (≈ 2.7 µM) | 4 (≈ 5.41 µM) | 32 (≈ 43.3 µM) | 32 (≈ 43.3 µM) | 2 (≈ 2.7 µM) | 1 (≈ 1.35 µM) | > 128 | 128 (≈ 173 µM) | 64 (≈ 86.5 µM) | 128 (≈ 173 µM) | > 128 | 128 (≈ 173 µM) | 32 (≈ 43.3 µM) | 16 (≈ 21.6 µM) | 4 (≈ 5.41 µM) | 4 (≈ 5.41 µM) | MIC ([19]; ESS2231, Escherichia coli ESS22-31, agar dilution, 35° C., 18 hours, nutrient agar): ≤ 0.12 µg/mL; MIC [22]: 2 µg/mL (≈ 2.7 µM); MIC [23]: 4 µg/mL (≈ 5.41 µM); MIC [24]: 8 µg/mL (≈ 10.8 µM); MIC [25]: 128 µg/mL (≈ 173 µM) |
| CC(=O)OCC1=C(C(=O)O)N2C(=O)[C@@H](NC(=O)[C@H](N)c3ccccc3)[C@H]2SC1 [Compound XI, Cephaloglycin, reference compound] | > 128 | > 128 | > 128 | > 128 | 1 (≈ 2.47 µM) | 2 (≈ 4.93 µM) | 8 (≈ 19.7 µM) | 16 (≈ 39.5 µM) | 0.5 (≈ 1.23 µM) | 2 (≈ 4.93 µM) | > 128 | > 128 | > 128 | > 128 | > 128 | > 128 | > 128 | > 128 | 2 (≈ 4.93 µM) | 2 (≈ 4.93 µM) | MIC [19, 26]: 0.12 µg/mL (≈ 0.296 µM); MIC [22]: 2 µg/mL (≈ 4.93 µM); MIC [23]: 1 µg/mL (≈ 2.47 µM); MIC [24]: 0.12 µg/mL (≈ 0.296 µM); MIC [25]: 64 µg/mL (≈ 158 µM) |
| Cc1nnc(SCC2=C(C(=O)O)N3C(=O)[C@@H](NC(=O)Cn4cnnn4)[C@H]3SC2)s1 [Compound XII, Cefazolin, reference compound] | > 128 | > 128 | > 128 | > 128 | 1 (≈ 2.2 µM) | 1 (≈ 2.2 µM) | 8 (≈ 17.6 µM) | 64 (≈ 141 µM) | 0.5 (≈ 1.1 µM) | 2 (≈ 4.4 µM) | > 128 | > 128 | > 128 | > 128 | > 128 | > 128 | > 128 | > 128 | 1 (≈ 2.2 µM) | 1 (≈ 2.2 µM) | MIC [19, 26]: 0.25 µg/mL (≈ 0.55 µM); MIC [22]: 0.5 µg/mL (≈ 1.1 µM); MIC [23]: 0.12 µg/mL (≈ 0.264 µM); MIC [24]: ≤ 0.06 µg/mL; MIC [25]: 16 µg/mL (≈ 35.2 µM) |
